From patent publication US10774051B2, “6-membered heterocyclic derivatives and pharmaceutical composition comprising the same” (Shionogi & Co., Ltd., priority 2015, dated 2020)
pIC50: −log10 of the molar value.

Molecular target: human P2X7 receptor (Homo sapiens, UniProt Q99572, R270H/Y155H)
Assay: Evaluation of human P2X7 receptor inhibitory activity (Yo-Pro uptake, BzATP stimulation, FLIPR TETRA)
Type: cell-based
Settings: 1321N1 cells stably expressing human P2X7 receptor; BzATP stimulation, Yo-Pro uptake; read-out: IC50 (antagonistic activity for the human P2X7 receptor)
Outline: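 Yo-Pro dye uptake triggered by BzATP was monitored by FLIPR in human P2X7-transfected 1321N1 cells (SNP variant) in HEPES-buffered HBSS, pH 7.4-7.5. Compound was dispensed 8 min post-stimulation, then signal read for 20 min; IC50 derived logistically from inhibition of the fluorescence range.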

Row | SMILES | pIC50
1 | COc1cn(Cc2cc(F)cc(F)c2)c(Nc2cccc3c(=O)[nH]ccc23)nc1=O [Compound I-0652] | 7.47
2 | COc1cn(Cc2cc(F)cc(Cl)c2)c(Nc2cccc3sccc23)nc1=O [Compound I-0670] | 7.70
3 | COc1ccccc1Nc1nc(=O)c(OC)cn1Cc1ccc(F)c(F)c1 [Compound I-0675] | 6.72
4 | COc1cc(Cn2cc(OC)c(=O)nc2Nc2cccc(Cl)c2C)ccc1F [Compound I-0698] | 7.00
5 | O=c1nc(Nc2cccc3c(=O)[nH]ccc23)n(Cc2cc(F)cc(F)c2)cc1F [Compound I-0703] | 7.80
6 | Cc1cc(Nc2nc(=O)c(Cl)cn2Cc2cc(F)cc(F)c2)c2cc[nH]c2c1 [Compound I-0706] | 7.82

Same assay, conditions: antagonistic activity for the human P2X7 receptor; read-out: IC50

Row | SMILES | pIC50
7 | COc1cn(Cc2ccc(F)c(F)c2)c(Nc2cc(N3CCCC3=O)ccc2C)nc1=O [Compound I-0646] | 7.00 to 8.00
8 | COc1cn(Cc2cc(F)cc(Cl)c2)c(Nc2cc(N3CCCC3=O)ccc2C)nc1=O [Compound I-0647] | 7.00 to 8.00
9 | COc1cn(Cc2cc(F)cc(F)c2)c(Nc2cc(N3CCCC3=O)ccc2C)nc1=O [Compound I-0648] | 7.00 to 8.00
10 | COc1cn(Cc2cc(F)cc(Cl)c2)c(Nc2cc(C)cc3[nH]ccc23)nc1=O [Compound I-0649] | 7.00 to 8.00
11 | COc1cn(Cc2cc(F)cc(F)c2)c(Nc2cc(C)cc3[nH]ccc23)nc1=O [Compound I-0650] | 7.00 to 8.00
12 | COc1cn(Cc2cc(F)cc(Cl)c2)c(Nc2cccc3c(=O)[nH]ccc23)nc1=O [Compound I-0651] | 7.00 to 8.00
13 | COc1cn(Cc2ccc(F)c(F)c2)c(Nc2cc(-n3cccc3)ccc2C)nc1=O [Compound I-0653] | > 8.00
14 | COc1cn(Cc2cc(F)cc(Cl)c2)c(Nc2cc(-n3cccc3)ccc2C)nc1=O [Compound I-0654] | 7.00 to 8.00
15 | COc1cn(Cc2cc(F)cc(F)c2)c(Nc2cc(-n3cccc3)ccc2C)nc1=O [Compound I-0655] | 7.00 to 8.00
16 | CCc1cc(Br)ccc1Nc1nc(=O)c(OC)cn1Cc1cc(F)cc(Cl)c1 [Compound I-0656] | 7.00 to 8.00
17 | CCc1ccc(OC)cc1Nc1nc(=O)c(OC)cn1Cc1cc(F)cc(Cl)c1 [Compound I-0657] | 7.00 to 8.00
18 | COc1cn(Cc2ccccc2)c(Nc2cc(-c3ccc(C)o3)ccc2C)nc1=O [Compound I-0658] | 7.00 to 8.00
19 | COc1cn(Cc2ccc(F)c(Cl)c2)c(Nc2cc(-c3ccc(C)o3)ccc2C)nc1=O [Compound I-0659] | 7.00 to 8.00
20 | COc1cn(Cc2ccc(F)cc2)c(Nc2cccc(OC(F)F)c2C)nc1=O [Compound I-0660] | 7.00 to 8.00
21 | COc1cccc(Nc2nc(=O)c(OC)cn2Cc2ccc(F)cc2)c1C [Compound I-0661] | > 8.00
22 | COc1cn(Cc2ccc(F)cc2)c(Nc2cccc(C)c2Cl)nc1=O [Compound I-0662] | 7.00 to 8.00
23 | COc1cn(Cc2ccccc2)c(Nc2cc(-c3cnccn3)ccc2C)nc1=O [Compound I-0663] | 7.00 to 8.00
24 | COc1cn(Cc2ccc(F)c(Cl)c2)c(Nc2cc(-c3cnccn3)ccc2C)nc1=O [Compound I-0664] | > 8.00
25 | COc1cn(Cc2ccc(F)c(F)c2)c(Nc2cc3sc(C)nc3cc2C)nc1=O [Compound I-0665] | > 8.00
26 | COc1cn(Cc2cc(F)cc(Cl)c2)c(Nc2cc(Cl)c(Cl)cc2C)nc1=O [Compound I-0666] | 6.30 to 7.00
27 | COc1cn(Cc2cc(F)cc(Cl)c2)c(Nc2cc(-c3nnco3)ccc2C)nc1=O [Compound I-0667] | 7.00 to 8.00
28 | COc1cn(Cc2cc(F)cc(Cl)c2)c(Nc2cc(-c3ncco3)ccc2C)nc1=O [Compound I-0668] | 7.00 to 8.00
29 | COc1cn(Cc2cc(F)cc(Cl)c2)c(Nc2cc3sc(C)nc3cc2C)nc1=O [Compound I-0669] | 7.00 to 8.00
30 | COc1cc(C)c(Nc2nc(=O)c(OC)cn2Cc2cccc(Cl)c2)cc1Cl [Compound I-0671] | > 8.00
31 | COc1cc(C)c(Nc2nc(=O)c(OC)cn2Cc2cc(F)cc(Cl)c2)cc1Cl [Compound I-0672] | > 8.00

Row | SMILES | pIC50
32 | CCc1ccc(OC)cc1Nc1nc(=O)c(OC)cn1Cc1cc(F)c(F)c(F)c1 [Compound I-0673] | > 8.00
33 | CCc1ccccc1Nc1nc(=O)c(OC)cn1Cc1ccc(F)c(F)c1 [Compound I-0674] | 7.00 to 8.00
34 | CCOc1ccc(Nc2nc(=O)c(OC)cn2Cc2ccccc2)c(C)c1 [Compound I-0676] | 6.30 to 7.00
35 | CCOc1ccc(Nc2nc(=O)c(OC)cn2Cc2cccc(Cl)c2)c(C)c1 [Compound I-0677] | 7.00 to 8.00
36 | CCOc1ccc(Nc2nc(=O)c(OC)cn2Cc2ccc(F)c(F)c2)c(C)c1 [Compound I-0678] | > 8.00
37 | CCOc1ccc(Nc2nc(=O)c(OC)cn2Cc2ccc(F)c(Cl)c2)c(C)c1 [Compound I-0679] | > 8.00
38 | CCOc1ccc(Nc2nc(=O)c(OC)cn2Cc2cc(F)cc(F)c2)c(C)c1 [Compound I-0680] | 7.00 to 8.00
39 | CCOc1ccc(Nc2nc(=O)c(OC)cn2Cc2cc(F)cc(Cl)c2)c(C)c1 [Compound I-0681] | 7.00 to 8.00
40 | COc1cn(Cc2cc(F)cc(Cl)c2)c(Nc2cccc(SC)c2C)nc1=O [Compound I-0682] | 7.00 to 8.00
41 | COc1cccc(Nc2nc(=O)c(OC)cn2Cc2ccc(F)c(Cl)c2)c1Cl [Compound I-0683] | > 8.00
42 | COc1cn(Cc2cc(F)cc(F)c2)c(Nc2cc(-c3cnccn3)ccc2C)nc1=O [Compound I-0684] | 7.00 to 8.00
43 | COc1cn(Cc2ccc(F)c(F)c2)c(Nc2ccccc2C)nc1=O [Compound I-0685] | 7.00 to 8.00
44 | COc1cc(Nc2nc(=O)c(OC)cn2Cc2ccc(F)c(Cl)c2)c(C)cc1F [Compound I-0686] | > 8.00
45 | CCc1cc2c(cc1Nc1nc(=O)c(OC)cn1Cc1ccccc1)OCO2 [Compound I-0687] | 7.00 to 8.00
46 | CCc1cc2c(cc1Nc1nc(=O)c(OC)cn1Cc1ccc(F)c(Cl)c1)OCO2 [Compound I-0688] | > 8.00
47 | COc1cn(Cc2ccc(F)c(F)c2)c(Nc2cccc3c(=O)[nH]ccc23)nc1=O [Compound I-0689] | 7.00 to 8.00
48 | COc1cn(Cc2ccccc2)c(Nc2cc(-c3cccnc3)ccc2C)nc1=O [Compound I-0690] | 7.00 to 8.00
49 | COc1cn(Cc2ccccc2)c(Nc2cc(OC(F)(F)F)ccc2C)nc1=O [Compound I-0691] | 6.30 to 7.00
50 | COc1cn(Cc2ccc(F)c(Cl)c2)c(Nc2cc(OC(F)(F)F)ccc2C)nc1=O [Compound I-0692] | 7.00 to 8.00
51 | COc1cn(Cc2ccc(F)c(F)c2)c(Nc2cc(OC(F)(F)F)ccc2C)nc1=O [Compound I-0693] | 7.00 to 8.00
52 | COc1cn(Cc2cc(F)cc(Cl)c2)c(Nc2cc(OC(F)(F)F)ccc2C)nc1=O [Compound I-0694] | 6.30 to 7.00
53 | COc1cn(Cc2cc(F)cc(F)c2)c(Nc2cc(OC(F)(F)F)ccc2C)nc1=O [Compound I-0695] | 7.00 to 8.00
54 | COc1cn(Cc2ccc(F)c(Cl)c2)c(Nc2cc(-c3cccnc3)ccc2C)nc1=O [Compound I-0696] | > 8.00
55 | COc1cn(Cc2cc(F)c(F)c(F)c2)c(Nc2cc3sc(C)nc3cc2C)nc1=O [Compound I-0697] | > 8.00
56 | Cc1ccc(-c2nnco2)cc1Nc1nc(=O)c(Cl)cn1Cc1cc(F)cc(F)c1 [Compound I-0699] | > 8.00

Row | SMILES | pIC50
57 | Cc1ccc(N2CCCC2=O)cc1Nc1nc(=O)c(F)cn1Cc1cc(F)cc(F)c1 [Compound I-0700] | > 8.00
58 | Cc1ccc(N2CCCC2=O)cc1Nc1nc(=O)c(Cl)cn1Cc1cc(F)cc(F)c1 [Compound I-0701] | > 8.00
59 | COc1cn(Cc2cc(F)c(F)c(F)c2)c(Nc2cccc(SC)c2C)nc1=O [Compound I-0704] | > 8.00
60 | Cc1cc(Nc2nc(=O)c(F)cn2Cc2cc(F)cc(F)c2)c2cc[nH]c2c1 [Compound I-0705] | > 8.00
61 | COc1cn(Cc2cc(F)c(F)c(F)c2)c(Nc2cc3c(cc2C)OCCO3)nc1=O [Compound I-0708] | > 8.00
62 | COc1cn(Cc2cc(F)cc(F)c2)c(Nc2cc3c(cc2C)OCCO3)nc1=O [Compound I-0709] | > 8.00
63 | COc1cn(Cc2cc(F)cc(Cl)c2)c(Nc2cc3c(cc2C)OCCO3)nc1=O [Compound I-0710] | 7.00 to 8.00
64 | COc1cn(Cc2ccccc2)c(Nc2cc3c(cc2C)OC(F)(F)O3)nc1=O [Compound I-0711] | 6.30 to 7.00
65 | COc1cn(Cc2cc(F)c(F)c(F)c2)c(Nc2cc(C)c(F)cc2C)nc1=O [Compound I-0712] | > 8.00
66 | CCOc1cn(Cc2ccccc2)c(Nc2cc(C)c(OC)cc2C)nc1=O [Compound I-0713] | > 8.00
67 | CCOc1cn(Cc2ccc(F)c(Cl)c2)c(Nc2cc(C)c(OC)cc2C)nc1=O [Compound I-0714] | > 8.00
68 | COc1cc(Nc2nc(=O)c(OC)cn2Cc2cc(F)c(F)c(F)c2)c(C)cc1C [Compound I-0715] | > 8.00
69 | CCOc1cn(Cc2ccc(F)c(Cl)c2)c(Nc2cc(C)cc(OC)c2C)nc1=O [Compound I-0716] | > 8.00
70 | CCOc1cn(Cc2ccccc2)c(Nc2cc(C)cc(OC)c2C)nc1=O [Compound I-0717] | > 8.00
71 | COc1cc(C)c(Nc2nc(=O)c(OC)cn2Cc2ccccc2)cc1F [Compound I-0718] | 7.00 to 8.00
72 | COc1cc(C)c(Nc2nc(=O)c(OC)cn2Cc2ccc(F)c(Cl)c2)cc1F [Compound I-0719] | > 8.00
73 | COc1cn(Cc2ccccc2)c(Nc2cc3c(cc2C)OCO3)nc1=O [Compound I-0720] | 7.00 to 8.00
74 | COc1cc(C)c(Nc2nc(=O)c(OC)cn2Cc2cc(F)cc(F)c2)cc1F [Compound I-0721] | > 8.00
75 | C=C(C)c1ccc(C)c(Nc2nc(=O)c(OC)cn2Cc2ccccc2)c1 [Compound I-0722] | 7.00 to 8.00
76 | C=C(C)c1ccc(C)c(Nc2nc(=O)c(OC)cn2Cc2ccc(F)c(Cl)c2)c1 [Compound I-0723] | 7.00 to 8.00
77 | COc1cn(Cc2ccccc2)c(Nc2c(C)cccc2C)nc1=O [Compound I-0724] | 6.30 to 7.00
78 | CCOc1ccc(Nc2nc(=O)c(OC)cn2Cc2cc(F)c(F)c(F)c2)c(C)c1 [Compound I-0725] | > 8.00
79 | COc1cn(Cc2cc(F)cc(F)c2)c(Nc2cc3c(cc2C)OC(F)(F)O3)nc1=O [Compound I-0726] | 6.30 to 7.00
